In series [1] the test system is UMUC-14 cells. Put plainly: WST-1 cell proliferation assay, UMUC-14. Conditions: WST-1 reagent, 24 hours, read-out: IC50, inhibition of UMUC-14 cell growth. Format: cell-based, human. The protocol: (§1) The sensitivity of the human bladder tumor cell lines to gemcitabine and cisplatin was further assessed using a cell proliferation assay. UMUC-14 and KU7P cells were plated in media containing various amounts of gemcitabine and cisplatin and cell proliferation was determined using the WST-1 reagent 24 hours later.
(In general: Formazan colour is commonly taken as a measure of viable cells.)

For series [2], the system named is KU7P cells. Put plainly: WST-1 cell proliferation assay, KU7P. Format: cell-based, human. The note with it: WST-1 reagent, 24 hours, read-out: IC50, inhibition of KU7P cell growth. The protocol: as §1
Series [3] concerns HLA-A2+ p53+ UMUC-14 cells. Put plainly: In vitro 24-hour incubation of UMUC-14 cells with chemotherapeutic agents. The note with it: G0/G1 cell cycle arrest. In kind it is cell-based, human. As for the experimental part: The anti-tumor efficacy of multi-dose administration of […] (ALT-801), alone and in combination with gemcitabine and cisplatin, was evaluated on primary tumor growth in athymic nude mice bearing human bladder UMUC-14 and KU7P cells. Treatment with a gemcitabine and cisplatin regimen is the standard-of-care for patients with metastatic bladder cancer. To assess the in vitro effects of these chemotherapeutic agents on human bladder cancer cells, HLA-A2^+ p53^+ UMUC-14 cells were treated with gemcitabine and cisplatin, alone and in combination.

Series [4] relates to subcutaneous KU7P human bladder tumors. The series can be described thus: Subcutaneous KU7P xenograft, monotherapy. In kind it is in vivo, nude mice. Conditions: Gem 40 mg/kg, MART-1scTCR/IL-2 2.19 mg/kg, ALT-801 1.6 mg/kg.
In series [5] the test system is Gr1+CD11b+ MDSCs. The series can be described thus: Spleen Gr1+CD11b+ MDSCs after gemcitabine. Format: in vivo, C57BL/6 mice. The note with it: 40 mg/kg i.v., three days after; untreated tumor-bearing 4.29 (±1.32), normal 1.19 (±0.25). The protocol: Gemcitabine is one of the drugs in the standard combination chemotherapy for muscle invasive bladder cancer. It has been reported that gemcitabine reduces myeloid-derived suppressor cells (MDSCs) in tumor-bearing mice. In this report, we studied the effect of gemcitabine on MDSCs induced by MB49luc cells in mice. MB49luc tumor-bearing mice were treated intravenously with gemcitabine at 40 mg/kg. Three days after gemcitabine treatment, splenocytes were isolated and the percentage of Gr1^+CD11b^+ MDSCs was determined by flow cytometry. The MDSCs accounted for 1.19 (±0.25) percent of the splenocytes in normal control mice without MB49luc tumors. These MDSCs increased to 4.29 (±1.32) percent of splenocytes in MB49luc tumor-bearing mice.

The subject of series [6] is subcutaneous MB49G tumors. The series can be described thus: Gemcitabine resistant subcutaneous MB49G tumor model. Format: in vivo, mice. The note with it: ALT-801 0.8 mg/kg (sub-optimal dose), gemcitabine 40 mg/kg. An excerpt: As potent suppressors of various immune cell functions, MDSCs are potential therapeutic targets for anticancer treatment. For example, gemcitabine, a widely-used chemotherapeutic, can selectively eliminate MDSCs in tumor-bearing animals and enhance tumor-suppressive immune activity (Suzuki et al., Clin Cancer Res, 11: 6713-6721, 2005).

In series [7] the test system is MB49luc cells. Put plainly: Effect of IFN-γ on MB49luc cells, Annexin V flow cytometry. Conditions: 1 or 10 ng/mL. Format: cell-based, mouse. As for the experimental part: In the second part of this study, the effect of IFN-γ on MB49luc cell growth was investigated. MB49luc cells (2×10^5/well) were cultured in RPMI-10 with IFN-γ at 1 or 10 ng/mL. The IFN-γ-treated MB49luc cells were harvested and stained with FITC-labeled Annexin V. The Annexin V positive apoptotic MB49luc cells were determined by flow cytometry.
On the technique in general: A flow cytometer gives signals particle by particle.

Read-outs that look alike come from different tables or passages of the source.

By IC50 is commonly meant the concentration that inhibits the measured activity by half.

Turning to `N.N.[Cl][Pt][Cl]` [cisplatin], the IC50 in series [1] was 9.2 µM; in series [2], 1.4 µM. The UMUC-14 cell proliferation result in series [3] is “dose dependent decrease”.
With `Nc1ccn([C@@H]2O[C@H](CO)[C@@H](O)C2(F)F)c(=O)n1` [gemcitabine], the IC50 was determined as 2030 µM in series [1] (Homo sapiens, UMUC14) and 0.05 µM in series [2] (Homo sapiens). Also, the UMUC-14 cell proliferation entry in series [3] was “dose dependent decrease”. Besides, the “growth of subcutaneous KU7P tumors compared to PBS treated mice” value in series [4] was “statistically significant decrease”. The “spleen Gr1+CD11b+ MDSCs as percent of splenocytes” value in series [5] is 1.83 (±0.92) percent. Also, in series [6], the “tumor growth / progression compared to PBS treated mice” value was “did not significant differ”.
“IFN-γ: cytokine added to MB49luc cell cultures”: the “cytotoxicity against MB49luc cells (Annexin V positive apoptotic cells)” value in series [7] is given as “does not directly result in detectable cytotoxicity”.
